The record followed here is patent publication US11453660B2, “Androgen receptor and glucocorticoid receptor modulators” (ONCOSTELLAE, S.L., priority 2017, dated 2022).

The structures appear in SMILES notation. A value given as a limit tells only on which side of the number the result lay.

The target of this assay is T1, Rat Androgen Receptor (Rattus norvegicus, UniProt P15207).
T1 construct: purchased Life Technologies A15880
T1 sequence (P15207 646-902 limits assumed): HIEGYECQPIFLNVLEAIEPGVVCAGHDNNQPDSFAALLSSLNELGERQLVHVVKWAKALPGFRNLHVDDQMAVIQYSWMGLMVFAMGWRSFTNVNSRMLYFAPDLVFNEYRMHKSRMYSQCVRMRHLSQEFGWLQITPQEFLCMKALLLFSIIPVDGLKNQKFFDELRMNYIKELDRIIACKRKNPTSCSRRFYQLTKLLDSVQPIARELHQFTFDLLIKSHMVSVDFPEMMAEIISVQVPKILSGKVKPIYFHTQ
The assay can be described thus: Rat Androgen Receptor Binding (polarscreen AR competitor assay, fluorescence polarization). The settings on record: displacement of Fluormone AL Green, 4 hours at RT, read-out: AR rat-fluorimetric. The protocol: Pharmacological Activity Rat Androgen Receptor Binding
The assay was carried out following the instructions of polarscreen AR competitor assay green kit (Life Technologies, Cat #.: A15880). Briefly, the test is based on measuring the changes of fluorescence polarization shown by the Fluormone AL Green. Thus, when the Fluormone is bound to the receptor, a fluorescence polarization is observed that diminishes when a ligand competes for the receptor binding site and the Fluormone gets displaced.
The inhibition values for each of the compounds are measured in duplicate at 1 and 10 μM and the plate is incubated for 4 hours at RT. Fluorescence polarization is the measured in a Tecan Infinite M1000 Pro reader (λexc=485 nm, λem=535 nm). In order to obtain a dose-response curve and calculate the potency of inhibition (expressed as IC50) for AR, a series of 1:10 dilutions in test in 1× buffer from 10 μM to 0.1 nM for each compound was carried out.
In general terms: Fluorescence polarisation rises when a labelled molecule tumbles more slowly, as on binding a larger partner.
Consider `COC(=O)C1=C(C)NC(C)=C(C(C)=O)C1c1csc2ccccc12` (racemic) [Example A1, Methyl 5-acetyl-4-(benzo[b]thiophen-3-yl)-2,6-dimethyl-1,4-dihydro-pyridine-3-carboxylate], for which the IC50 was below 100 nM.

For `COC(=O)C1=C(C)NC(C)=C(C(C)=O)C1c1csc2ccccc12` (single isomer, unassigned) [Example A2, Methyl 5-acetyl-4-(benzo[b]thiophen-3-yl)-2,6-dimethyl-1,4-dihydro-pyridine-3-carboxylate], the IC50 lay within 100 to 1000 nM.

For `COC(=O)C1=C(C)NC(C)=C(C(C)=O)C1c1csc2ccccc12` (single isomer, unassigned) [Example A3, Methyl 5-acetyl-4-(benzo[b]thiophen-3-yl)-2,6-dimethyl-1,4-dihydro-pyridine-3-carboxylate], the IC50 was below 100 nM.

Take `CC(=O)C1=C(C)NC(C)=C(C(=O)OCC(F)(F)F)C1c1csc2ccccc12` (stereo not shown) [Example A10, 2,2,2-trifluoroethyl 5-acetyl-4-(benzo[b]thiophen-3-yl)-2,6-dimethyl-1,4-dihydropyridine-3-carboxylate]: the IC50 was below 100 nM.

As to `CC(=O)C1=C(C)NC(C2CC2)=C(C(=O)C2CC2)C1c1csc2ccccc12` (stereo not shown) [Example B18, 1-(4-(Benzo[b]thiophen-3-yl)-5-(cyclopropanecarbonyl)-6-cyclopropyl-2-methyl-1,4-dihydropyridin-3-yl)ethan-1-one], the IC50 is below 100 nM.

As for `CC(=O)C1=C(C)NC(C)=C(C(=O)OC2CCOCC2)C1c1csc2ccccc12` (stereo not shown) [Example C1, Tetrahydro-2H-pyran-4-yl 5-acetyl-4-(benzo[b]thiophen-3-yl)-2,6-dimethyl-1,4-dihydropyridine-3-carboxylate], the IC50 fell in the range of 100 to 1000 nM.

As for `CC(=O)C1=C(C)NC(C)=C(C(=O)OC2CCCCC2)C1c1csc2ccccc12` (stereo not shown) [Example C3, Cyclohexyl 5-acetyl-4-(benzo[b]thiophen-3-yl)-2,6-dimethyl-1,4-dihydropyridine-3-carboxylate], the IC50 was below 100 nM.

As for `COCCC1=C(C(=O)OC)C(c2csc3ccccc23)C(C(C)=O)=C(C)N1` (stereo not shown) [Example C7, Methyl 5-acetyl-4-(benzo[b]thiophen-3-yl)-2-(2-methoxyethyl)-6-methyl-1,4-dihydropyridine-3-carboxylate], the IC50 lay in the range of 100 to 1000 nM.

Take `COCC1=C(C(C)=O)C(c2csc3ccccc23)C(C(=O)OC)=C(C)N1` (stereo not shown) [Example C19, Methyl 5-acetyl-4-(benzo[b]thiophen-3-yl)-6-(methoxymethyl)-2-methyl-1,4-dihydropyridine-3-carboxylate]: the IC50 is at least 1000 nM.

As for `CC(=O)C1=C(C)NC(C)=C(C(=O)OCC2CC2)C1c1csc2ccc(F)cc12` (stereo not shown) [Example C21, Cyclopropylmethyl 5-acetyl-4-(5-fluorobenzo[b]thiophen-3-yl)-2,6-dimethyl-1,4-dihydropyridine-3-carboxylate], the IC50 is below 100 nM.

With `CC(=O)C1=C(C)NC(C)=C(C(=O)OCC2CCCC2)C1c1csc2ccccc12` (stereo not shown) [Example C23, Cyclopentylmethyl 5-acetyl-4-(benzo[b]thiophen-3-yl)-2,6-dimethyl-1,4-dihydropyridine-3-carboxylate], the IC50 is below 100 nM.

On to `CC(=O)C1=C(C)NC(C)=C(C(=O)OC2CCCC2)C1c1csc2ccccc12` (stereo not shown) [Example C26, Cyclopentyl 5-acetyl-4-(benzo[b]thiophen-3-yl)-2,6-dimethyl-1,4-dihydropyridine-3-carboxylate], for which the IC50 was below 100 nM.

As to `CC(=O)C1=C(C)NC(C)=C(C(=O)OC2CCC(C)(C)CC2)C1c1csc2ccccc12` (stereo not shown) [Example C27, 4,4-dimethylcyclohexyl 5-acetyl-4-(benzo[b]thiophen-3-yl)-2,6-dimethyl-1,4-dihydropyridine-3-carboxylate], the IC50 was at least 1000 nM.

For `CC(=O)C1=C(C)NC(C)=C(C(=O)OC2CCC2)C1c1csc2ccccc12` (stereo not shown) [Example C28, Cyclobutyl 5-acetyl-4-(benzo[b]thiophen-3-yl)-2,6-dimethyl-1,4-dihydropyridine-3-carboxylate], the IC50 lay in the range of 100 to 1000 nM.

In the case of `COC(=O)C1=C(C(F)(F)F)NC(C)=C(C(C)=O)C1c1csc2ccc(F)cc12` (stereo not shown) [Example C29, Methyl 5-acetyl-4-(5-fluorobenzo[b]thiophen-3-yl)-6-methyl-2-(trifluoromethyl)-1,4-dihydropyridine-3-carboxylate], the IC50 is below 100 nM.

For `COC(=O)C1=C(N)NC(C)=C(C(=O)C2CC2)C1c1csc2ccccc12` (stereo not shown) [Example D2, Methyl 2-amino-4-(benzo[b]thiophen-3-yl)-5-(cyclopropanecarbonyl)-6-methyl-1,4-dihydropyridine-3-carboxylate], the IC50 is at least 1000 nM.

Consider `COC(=O)C1=C(N)NC(C)=C(C(C)=O)C1c1csc2ccc(F)cc12` (stereo not shown) [Example D3, Methyl 5-acetyl-2-amino-4-(5-fluorobenzo[b]thiophen-3-yl)-6-methyl-1,4-dihydropyridine-3-carboxylate], for which the IC50 was below 100 nM.

For `CC(=O)C1=C(C)NC(C)=C(C(C)=O)C1c1csc2cc(O)ccc12` [Example G2, 1,1′-(4-(6-hydroxybenzo[b]thiophen-3-yl)-2,6-dimethyl-1,4-dihydropyridine-3,5-diyl)bis(ethan-1-one)], the IC50 was at least 1000 nM.

`COc1ccc2c(C3C(C(C)=O)=C(C)NC(C)=C3C(C)=O)csc2c1` [Example G3, 1,1′-(4-(6-Methoxybenzo[b]thiophen-3-yl)-2,6-dimethyl-1,4-dihydropyridine-3,5-diyl)diethanone]: the IC50 is at least 1000 nM.

On to `CC(=O)C1=C(C2CC2)NC(C2CC2)=C(C(C)=O)C1c1csc2ccccc12` [Example G4, 1,1′-(4-(Benzo[b]thiophen-3-yl)-2,6-dicyclopropyl-1,4-dihydropyridine-3,5-diyl)diethanone], for which the IC50 was at least 1000 nM.

With `CC(=O)C1=C(C)NC(C)=C(C(C)=O)C1c1csc2ccc(Cl)cc12` [Example H1, 1,1′-(4-(5-chlorobenzo[b]thiophen-3-yl)-2,6-dimethyl-1,4-dihydropyridine-3,5-diyl)diethanone], the IC50 is below 100 nM.

As for `CC(=O)C1=C(C)NC(C)=C(C(C)=O)C1c1csc2ccc(Br)cc12` [Example H2, 1,1′-(4-(5-bromobenzo[b]thiophen-3-yl)-2,6-dimethyl-1,4-dihydropyridine-3,5-diyl)diethanone], the IC50 was below 100 nM.

As for `CC(=O)C1=C(C)NC(C)=C(C(C)=O)C1c1csc2ccc(F)cc12` [Example H3, 1,1′-(4-(5-fluorobenzo[b]thiophen-3-yl)-2,6-dimethyl-1,4-dihydropyridine-3,5-diyl)bis(ethan-1-one)], the IC50 is at least 1000 nM.

With `CC(=O)C1=C(C)NC(C)=C(C(C)=O)C1c1csc2ccc(N3CCOCC3)cc12` [Example H4, 1,1′-(2,6-dimethyl-4-(5-morpholinobenzo[b]thiophen-3-yl)-1,4-dihydropyridine-3,5-diyl)bis(ethan-1-one)], the IC50 is at least 1000 nM.

As for `CC(=O)C1=C(C)NC(C)=C(C(C)=O)C1c1csc2ccc(N3CCN(C)CC3)cc12` [Example H5, 1,1′-(2,6-dimethyl-4-(5-(4-methylpiperazin-1-yl)benzo[b]thiophen-3-yl)-1,4-dihydropyridine-3,5-diyl)bis(ethan-1-one)], the IC50 was at least 1000 nM.

With `CC(=O)C1=C(C)NC(C)=C(C(C)=O)C1c1csc2ccc(NCc3ccccc3)cc12` [Example H6, 1,1′-(4-(5-(benzylamino)benzo[b]thiophen-3-yl)-2,6-dimethyl-1,4-dihydropyridine-3,5-diyl)bis(ethan-1-one)], the IC50 is at least 1000 nM.

Turning to `CC(=O)C1=C(C)NC(C)=C(C(C)=O)C1c1csc2ccc(C#N)cc12` [Example H7, 3-(3,5-diacetyl-2,6-dimethyl-1,4-dihydropyridin-4-yl)benzo[b]thiophene-5-carbonitrile], the IC50 was at least 1000 nM.

As for `CC(=O)C1=C(C)NC(C)=C(C(C)=O)C1c1csc2ccc(C(=O)O)cc12` [Example H8, 3-(3,5-diacetyl-2,6-dimethyl-1,4-dihydropyridin-4-yl)benzo[b]thiophene-5-carboxylic acid], the IC50 is at least 1000 nM.

In the case of `CC(=O)C1=C(C)NC(C)=C(C(C)=O)C1c1csc2ccc(C(=O)NC3CC3)cc12` [Example H9, N-cyclopropyl-3-(3,5-diacetyl-2,6-dimethyl-1,4-dihydropyridin-4-yl)benzo[b]thiophene-5-carboxamide], the IC50 is at least 1000 nM.

Regarding `CC(=O)C1=C(C)NC(C)=C(C(C)=O)C1c1csc2ccc(C(=O)NCC3CC3)cc12` [Example H10, N-(cyclopropylmethyl)-3-(3,5-diacetyl-2,6-dimethyl-1,4-dihydropyridin-4-yl)benzo[b]thiophene-5-carboxamide], the IC50 was at least 1000 nM.

As to `CC(=O)C1=C(C)NC(C)=C(C(C)=O)C1c1csc2ccc(C(=O)N3CCN(C)CC3)cc12` [Example H11, 1,1′-(2,6-Dimethyl-4-(5-(4-methylpiperazine-1-carbonyl)benzo[b]thiophen-3-yl)-1,4-dihydropyridine-3,5-diyl)bis(ethan-1-one)], the IC50 was at least 1000 nM.
